Assay results taken from patent US20240343733A1, “COMPOUNDS FOR TARGETING DEGRADATION OF IRAK4 PROTEINS” (BIOGEN MA INC., priority 2021, published 2024).
Read-outs that look alike come from different tables or passages of the source.

Test: Pharmacokinetics in Male Cynomolgus Monkeys
Type: in vivo
Conditions: cynomolgus monkey, plasma; for Vd: read-out: Vdss
Method: Assay 5. Pharmacokinetics in Male Cynomolgus Monkeys
The pharmacokinetic (PK) profile in plasma of two compounds of the present invention was determined in male cynomolgus monkeys following single dose IV (5 mg/kg) and PO (10 mg/kg) administration. This study was performed under non-GLP conditions, and unless otherwise stated, all analytical reagents were standard laboratory reagent grade. The study was conducted in accordance with IACUC guidelines in compliance with the Animal Welfare Act, the Guide for the Care and Use of Laboratory Animals.
Male cynomolgus monkeys, non-naïve, are acceptable species to support PK studies for compounds intended for use in humans. The animals were supplied by Hainan Jingang Laboratory Animal Co. Ltd (Nayangxintan Fucheng Town, Qiongshan District, Haikou Hainan Province, P.R. China) or another qualified source. During in-life, the animals were individually housed in stainless-steel mesh cages that are in accordance with the National Research Council “Guide for the Care and Use of Laboratory Animals”. Animals were fed twice daily with approximately 120 g of certified monkey diet. These amounts were adjusted as necessary based on food consumption of the group or an individual body weight changes of the group or an individual and/or changes in the certified diet. In addition, animals received fruit daily as nutritional enrichment and reverse osmosis (RO) water was available to all animals, ad libitum. RO water was analyzed every three months and every batch of feed was analyzed before using. Feed and water analyses records were maintained in the facility records. The room(s) were controlled and monitored for relative humidity range of 40-70% (any excursion from this range for more than 3 hours was documented as a deviation) and temperature range of 18-26° C. (any excursion from this range was documented as a deviation) with 10 to 20 air changes/hour. The room was on a 12-hour light/dark cycle except when interruptions were necessitated by study activities. Normal healthy animals weighing >2 kg and age ≥2 years old were selected for studies. The monkeys were identified by a unique skin tattoo on chest.
2-[4-[[4-[1-(2,6-dioxo-3-piperidyl)-3-methyl-2-oxo-benzimidazol-5-yl]-1-piperidyl]methyl]cyclohexyl]-7-isopropoxy-N-pyrazolo[1,5-a]pyrimidin-3-yl-imidazo[1,2-a]pyridine-6-carboxamide, as described in Example 48 (“Compound 48”), and 2-((1R,4S)-4-((4-(1-(2,6-dioxopiperidin-3-yl)-3-methyl-2-oxo-2,3-dihydro-1H-benzo[d]imidazol-5-yl)piperidin-1-yl)methyl)cyclohexyl)-N-(1-((1S,2R)-2-fluorocyclopropyl)-2-oxo-1,2-dihydropyridin-3-yl)-7-isopropoxyimidazo[1,2-a]pyridine-6-carboxamide, as described in Example 169 (“Compound 169”), were each formulated by dissolving the compound in polyethylene glycol (PEG400) (10%) with stirring, followed by the slow addition of 11.11% 2-Hydroxypropyl-beta-cyclodextrin (HPβCD) (90%) in water. Vehicle dose was PEG400 (10%) and 11.11% HP-β-CD (90%) in water. Formulations and vehicle were freshly prepared on of the day of dosing and stored at room temperature until used.
All animals were weighed prior to drug administration. The animals were divided into intravenous (IV) group and per os (PO) group for each compound tested, with 3 animals in each group. The vehicle dosing group included IV and PO groups, making a total of 6 groups of 3 animals each, for 18 animals total. The IV dose was administered by intravenous bolus injection into the cephalic or saphenous vein. The vein used for the dosing was not used for blood sample collection for the first 4 hours post dose. The PO dose was administered by nasogastric tube. The nasogastric PO doses were flushed using 3 mL of vehicle (approximately 3 times volume of nasogastric tube). […] The dosing volume was 2.5 mL/kg for the IV groups and 5 mL/kg for the PO groups. The dosing concentration was 2 mg/mL for both IV and PO groups. Feeding conditions were overnight fasting for PO group but not for IV group. […]

SMILES | AUC(0-t) (5 mg/kg IV, mean) [ng·h/mL] | C0 (5 mg/kg IV, mean) [ng/mL] | clearance (5 mg/kg IV, mean) [mL/min/kg] | half-life (5 mg/kg IV, mean) [h] | Vd (5 mg/kg IV, mean) [L/kg] | AUC(0-t) (10 mg/kg PO, mean) [ng·h/mL] | Cmax (10 mg/kg PO, mean) [ng/mL] | bioavailability (10 mg/kg PO, mean) [%] | AUC(0-t) (5 mg/kg IV, mean (Table 11)) [ng·h/mL] | C0 (5 mg/kg IV, mean (Table 11)) [ng/mL] | clearance (5 mg/kg IV, mean (Table 11)) [mL/min/kg] | half-life (5 mg/kg IV, mean (Table 11)) [h] | Vd (5 mg/kg IV, mean (Table 11)) [L/kg] | AUC(0-t) (10 mg/kg PO, mean (Table 12)) [ng·h/mL] | Cmax (10 mg/kg PO, mean (Table 12)) [ng/mL] | bioavailability (10 mg/kg PO, mean (Table 12)) [%]
CC(C)Oc1cc2nc([C@H]3CC[C@H](CN4CCC(c5ccc6c(c5)n(C)c(=O)n6C5CCC(=O)NC5=O)CC4)CC3)cn2cc1C(=O)Nc1cnn2cccnc12 (stereo partly shown) [Compound 48, 2-[4-[[4-[1-(2,6-dioxo-3-piperidyl)-3-methyl-2-oxo-benzimidazol-5-yl]-1-piperidyl]methyl]cyclohexyl]-7-isopropoxy-N-pyrazolo[1,5-a]pyrimidin-3-yl-imidazo[1,2-a]pyridine-6-carboxamide] | 1740 | 5970 | 48.6 | 44.2 | 70.3 | 84.3 | 18.3 | 2.42 |  |  |  |  |  |  |  | 
CC(C)Oc1cc2nc([C@H]3CC[C@H](CN4CCC(c5ccc6c(c5)n(C)c(=O)n6C5CCC(=O)NC5=O)CC4)CC3)cn2cc1C(=O)Nc1cccn([C@H]2C[C@H]2F)c1=O (stereo partly drawn) [Compound 169, 2-((1R,4S)-4-((4-(1-(2,6-dioxopiperidin-3-yl)-3-methyl-2-oxo-2,3-dihydro-1H-benzo[d]imidazol-5-yl)piperidin-1-yl)methyl)cyclohexyl)-N-(1-((1S,2R)-2-fluorocyclopropyl)-2-oxo-1,2-dihydropyridin-3-yl)-7-isopropoxyimidazo[1,2-a]pyridine-6-carboxamide] |  |  |  |  |  |  |  |  | 4680 | 10300 | 17 | 44.3 | 32.6 | 1020 | 101 | 10.8
